According to US20180207228A1, “PEPTIDE COMBINATIONS AND USES THEREOF FOR TREATING GRASS ALLERGY” (ALK-Abelló A/S, priority 2015, published 2018):
Where no end group is shown, it is not given here.

Legend:
Type in all cases: cell-based, human
[1] = test system: allergen specific T cells; experiment: T cell proliferation assay (72 h) on donor derived T cell lines (TCL02/TCL03); details: for Proliferation % donor coverage (TCL-02 DK1): T cell lines TCL-02 DK1, 30 donors, hit criteria SI>=2, CPM>=1000; for Proliferation strength (TCL-02 DK1): T cell lines TCL-02 DK1, strength of response (average relative magnitude)
Description: Isolated PBMCs (peripheral blood mononuclear cells) obtained from the donors described in Example 2 were CD8 depleted and the T cell lines were established by stimulating the cultures with nPhl p1, mix of nPhl p 2 and […] 5 and […] established for each of the donors tested by stimulating with the mixture of above listed allergens. Grass allergic donors were recruited (cohort DK1 including 30 grass allergic individuals, DK2 including 24 grass allergic individuals and US1 including 15 grass allergic individuals). PBMCs were isolated from freshly drawn heparinized blood by gradient centrifugation on lymphoprep (Nycomed, Norway), washed twice and re-suspended in RPMI 1640 medium with HEPES and ultraglutamine (Cambrex, Belgium) supplemented with 5% v/v human AB-serum (Cambrex, Belgium), 100 units/ml penicillin, and 0.1 mg/ml streptomycin (Sigma, St Louis, USA) (referred to as 5% AB-medium). Aliquots of the isolated PBMCs were frozen and were thawed later to stimulate the T cell lines. Additionally either fresh or thawed PBMCs were used as antigen presenting cells (APCs) in the proliferation assay as described later. In some cases the PBMCs were freezed at this stage and thawed later on to continue the experiment as described in the following. The isolated PBMCs (fresh or thawed) were CD8 depleted by MACS magnetic depletion according to the manufacturer's instructions (Miltenyi Biotec, Bergisch Gladbach, Germany). On day 0 the CD8-depleted PBMCs (2×10^6/ml) were stimulated in 1 ml bulk cultures in AB medium in 24 well plates (Nunc, Denmark) with the mixture of natural allergens: nPhl p 1 (0.5 μg/ml), mix of […]). […] On day 14 cells were harvested to obtain T cell line generation 01 (referred to as TCL01). Restimulation of T cell lines were performed in AB-medium with the thawed autologous PBMCs (10^6/well, irradiated 2500 Rad), the above mixture of natural allergens (concentration as mentioned above), and PHA-P (0.5 μg/ml, Difco, Detroit, Mich., USA). rIL-2 was added at day 17, 18 and 19. On day 24 cells were harvested to obtain T cell line generation 02 (referred as TCL02). T cells were isolated, washed, counted and used for T cell proliferation assay as described later. Remaining cells were frozen for later thawing and re-stimulations. The T cell line generation 2 (TCL02) were thawed and were re-stimulated with allogeneic Epstein Bar Virus transformed lymphoblastoid cell lines (EBV) B cells (JY cells, 10^5/well, irradiated 3500 Rad), allogeneic PBMCs (10^6/well, irradiated 2500 Rad), and 0.5 μg/ml PHA-P and subsequent addition of rIL-2 at days 3-5 to generate T cell line generation 03 (referred to as TCL03). […] To summarize ELISpot experiments were carried out at day 14 (with TCL01) and proliferation assay on either day 24 (with TCL02) or at day 34 (with TCL03). […] To ensure that all T cell epitopes regions from the major and intermediate grass allergens of the grass were identified T cell screening was carried out with either overlapping peptides or selected peptides. […] These were overlapping 20-mer peptides spanning the entire full length amino acid sequence of […] and selected high binder peptides from Phl p 4 were tested. Additionally 21, 15 mer peptides were tested which were derived from various group 1 and 5 allergens. Also, 67 peptides from homologous grass allergens were tested. Finally some reference peptides and mixes thereof were also tested. The 15-mer peptides were selected on the basis of predicted and measured promiscuous HLA binding and of sequence homology between known proteins sequences from the relevant pooideae grasses and the Bermuda grass. […] To get comprehensive data from all the donors the peptides were tested in both Fluorospot/Elispot (day 14, TCL01) and proliferation (day 24, TCL02).

[2] = test system: release of IL-5 upon T cell activation; experiment: Fluorospot assay, IL-5 release (DK1-TCL01, US1-TCL01); details: head prints TCL-02 DK1; text: 25 TCL-01 DK1 lines
Experimental: (§1) Grass allergic donors were recruited (cohort DK1 including 30 grass allergic individuals, DK2 including 24 grass allergic individuals and US1 including 15 grass allergic individuals). PBMCs were isolated from freshly drawn heparinized blood by gradient centrifugation on lymphoprep (Nycomed, Norway), washed twice and re-suspended in RPMI 1640 medium with HEPES and ultraglutamine (Cambrex, Belgium) supplemented with 5% v/v human AB-serum (Cambrex, Belgium), 100 units/ml penicillin, and 0.1 mg/ml streptomycin (Sigma, St Louis, USA) (referred to as 5% AB-medium). Aliquots of the isolated PBMCs were frozen and were thawed later to stimulate the T cell lines. Additionally either fresh or thawed PBMCs were used as antigen presenting cells (APCs) in the proliferation assay as described later. In some cases the PBMCs were freezed at this stage and thawed later on to continue the experiment as described in the following. The isolated PBMCs (fresh or thawed) were CD8 depleted by MACS magnetic depletion according to the manufacturer's instructions (Miltenyi Biotec, Bergisch Gladbach, Germany). On day 0 the CD8-depleted PBMCs (2×10^6/ml) were stimulated in 1 ml bulk cultures in AB medium in 24 well plates (Nunc, Denmark) with the mixture of natural allergens: nPhl p 1 (0.5 μg/ml), mix of nPhl p 2/nPhl p 3 (1.0 μg/ml), nPhl p 4 (0.5 μg/ml), nPhl p 5 (0.5 μg/ml) and nCyn d 1 (0.5 μg/ml). Amount of 65 U, 30 U, and 30 U recombinant IL-2 (Chiron, USA) were added per well at days 5, 6 and 7, respectively. On day 14 cells were harvested to obtain T cell line generation 01 (referred to as TCL01).
(§2) On day 14 the T cells of TCL01 were isolated, washed and counted. The isolated T cells of TCL01 generation were used to perform either ELISpot or Fluorospot assay. TCL01 were further re-stimulated as described in the next paragraph for use in T cell proliferation. The aliquot for use in T cell proliferation was re-stimulated on day 14 to carry out proliferation experiment at day 24.
(§3) In the Fluorospot assays, release of IL-5 and IFN-γ upon T cell activation (of donor derived lines DK1-TCL01, and US1-TCL01) with a peptide or a peptide-mix described herein was measured by Fluorospot assay kit (Mabtech AB) and procedures were followed as per manufacturer's instructions. Briefly anti-human IL-5 and anti-human IFN-γ coated 96 well plates were obtained and blocked with 10% AB serum in RPMI. The plates were washed thoroughly and the isolated T cells were plated and incubated with either single peptides (2 μg/ml) or peptide mixes (2 μg/ml), or allergens nPhl p1, nPhl p 2, nPhl p 3, nPhl p 4, nPhl p 5, Cyn d 1 at 2 μg/ml for 20 hrs/37° C./5% CO2. After the incubation time the cells were removed by emptying the plate. Detection antibodies 7-B6-1-FS-FITC (1:200) and 5A10-biotin (2 μg/ml) were diluted in PBS-0.1% BSA and were added to the plate and incubated for 2 hours/room temperature (RT). There-after the plates were washed and anti-FITC-green (1:200) and SA-Red (1:200) diluted in PBS±0.1% BSA were added and incubated for 1 hour/RT/dark. After the incubation period the plates were washed, emptied and fluorescence enhancer solution was added for 15 minutes/RT. Plates were emptied, fluorescence enhancer solution was firmly tapped out against a clean paper, soft plastic under drain was removed and the plates were left in the dark to dry. The counts were inspected in a fluorospot reader. Hit criteria for peptide were 20 SFCs/10^6 PBMCs, p≤0.05 and poisson 0.05 stimulated cells compared to background, and a stimulation index (SI)≥2.
(§4) The peptides were identified as hits if they fulfilled the criteria as mentioned below where stimulation index (SI) value of 2 or above, Poisson value=<0.05 and P value=<0.05, SFC>=20 (IL-5/IFN-g)/10^6 cells and CPM>=1000 (proliferation) SI can be defined as [[…]/medium control] in a Fluorospot assay and [counts per minute (cpm)/medium control] in a proliferation assay.

[3] = test system: release of IFN-γ upon T cell activation; experiment: Fluorospot assay, IFN-γ release (DK1-TCL01, US1-TCL01); details: head prints TCL-02 DK1; 17 TCL-01 DK1 lines
Experimental: as §1, §2, §3, §4

| Compound | Proliferation % donor coverage (TCL-02 DK1) [1] [%] | Proliferation strength (TCL-02 DK1) [1] | IL-5-Fluorospotr % donor coverage (TCL-02 DK1) [2] [%] | IFN-gamma % donor coverage (TCL-02 DK1) [3] [%] |
| --- | --- | --- | --- | --- |
| RNVFDEVIPTAFKIGKTYTP-OH [compound 44] | 20.00 | 1.40 | 0.00 | 0.00 |
| EPIFKDGLGSRASYEIKSKE-OH [compound 95] | 20.00 | 2.20 | 0.00 | 4.00 |
| CC[C@H](C)[C@H](NC(=O)[C@@H](NC(=O)[C@H](CCC(=O)O)NC(=O)[C@H](CC(=O)O)NC(=O)[C@H](Cc1ccccc1)NC(=O)[C@@H](NC(=O)[C@@H](N)CC(N)=O)C(C)C)C(C)C)C(=O)N1CCC[C@H]1C(=O)N[C@H](C(=O)N[C@@H](C)C(=O)N[C@@H](Cc1ccccc1)C(=O)N[C@H](C(=O)N[C@H](C(=O)NCC(=O)N[C@@H](CCCCN)C(=O)O)C(C)C)[C@@H](C)O)[C@@H](C)O [compound 127] | 10.34 | 2.80 | 0.00 | 0.00 |
| VVAVDIKEKGKDKWIELKES-OH [compound 25] | 20.00 | 1.10 | 4.00 | 8.00 |
| CC[C@H](C)[C@H](NC(=O)[C@H](CCCCN)NC(=O)[C@@H](NC(=O)[C@H](CC(C)C)NC(=O)[C@@H](NC(=O)[C@@H]1CCCN1C(=O)[C@H](CCC(=O)O)NC(=O)CNC(=O)[C@H](CO)NC(=O)[C@H](CO)NC(=O)[C@H](CCC(=O)O)NC(=O)[C@@H](NC(=O)[C@@H]1CCCN1)C(C)C)C(C)C)C(C)C)C(=O)N[C@H](C(=O)N[C@@H](CC(=O)O)C(=O)N[C@@H](CCCCN)C(=O)N[C@@H](CC(N)=O)C(=O)N[C@@H](Cc1ccc(O)cc1)C(=O)N[C@@H](CCC(=O)O)C(=O)N[C@@H](Cc1c[nH]cn1)C(=O)O)[C@@H](C)O [compound 97] | 10.00 | 0.70 | 4.00 | 8.00 |
| EGTKVTFHVEKGSNPNYLAL-OH [compound 24] | 36.67 | 7.40 | 16.00 | 4.00 |
| KPPFSGMTGSGNTPI-OH [compound 122] | 10.34 | 0.60 | 4.17 | 0.00 |
| TKKGNVWEVKSSKPLVGPFN-OH [compound 38] | 50.00 | 6.60 | 24.00 | 4.00 |
| WLDAKSTWYGKPTGAGPKDN-OH [compound 1] | 26.67 | 4.70 | 24.00 | 4.00 |
| VKYEGDTMAEVELREHGSDE-OH [compound 32] | 6.67 | 0.20 | 0.00 | 0.00 |
| KPPFSGMTGSGNTPIFKSGR-OH [compound 19] | 16.67 | 1.10 | 0.00 | 0.00 |
| TKGKVDPTDYFRNEQSIPPL-OH [compound 60] | 13.33 | 2.60 | 0.00 | 0.00 |
| YHFDLSGHAFGAMAKKGDEQ-OH [compound 5] | 46.67 | 7.80 | 24.00 | 15.00 |
| GFGMLLRKYGIAAENVIDVK-OH [compound 48] | 30.00 | 4.70 | 4.00 | 15.00 |
| GFKAALAAAAGVPPADKYRT-OH [compound 63] | 26.67 | 4.10 | 12.00 | 0.00 |
